From patent US4607031A, “Novel ethyl benzylphosphinate derivatives, process for production thereof, and their use as calcium antagonist” (priority 1984, dated 1986)

Assays:
Acute toxicity, oral = conditions: mouse, in vivo, ddY male mice, suspended in 0.5% carboxymethyl cellulose, 7 days
[1] = biological target: T1, taenia preparation isolated from caecum (Cavia porcellus); assay: Calcium antagonistic activity (isolated taenia preparation from caecum, Ca2+ concentration-response in K+-rich solution); type: cell-based; conditions: guinea pig taenia caeci; Ca2+-free, K+-rich Ringer-Lock solution, 30±1° C.; CaCl2 cumulatively added; read-out: Calcium antagonistic activity (pA2 values, mean ± standard error) (converted)
T1 construct: The taenia preparation in a length of about 2 cm was isolated from caecum; from tissue; host or cells: guinea pig taenia caeci (isolated smooth muscle strip)
Protocol: Male guinea pigs, weighing 405-500 g, were stunned and bled. The taenia preparation in a length of about 2 cm was isolated from caecum and suspended in an organ bath filled with Ca^2+ -free Ringer-Lock solution (composition, mM: NaCl 154, KCl 5.6, NaHCO3 2.3, glucose 5.5). The bathing solution was maintained at 30±1° C. and bubbled with air. The contractile response was recorded using an isotonic transducer (TD-112S made by Nihon Kohden Co., Ltd.) under a load of 0.5 g.
After sufficient incubation to remove Ca^2+, the bathing solution was replaced by Ca^2+ -free, K^+ -rich Ringer-Lock solution (composition, mM: NaCl 59.6, KCl 100, NaHCO3 2.3, glucose 5.5). An aqueous solution of CaCl2 ([…]) was cumulatively added to the bathing solution every 10 minutes, and a concentration-response curve for Ca^2+ was obtained. After washing out Ca^2+ the same procedure as above was carried out in the presence of each of the test compounds, and the pA2 value of the calcium antagonistic activity was calculated from the difference between the concentration-response curves obtained in the absence and presence of the test compound.
Each of the test compounds was dissolved in 5% ethanol and added to the bathing solution (the final concentration of ethanol was 0.05%).

Mongrel dogs = assay: Coronary vasodilating activity and hypotensive activity in anesthetized dogs; type: in vivo, dog; conditions: Canis lupus familiaris, iv; for ED15: read-out: Mean systemic blood pressure lowering activity MBP-DD15; for ED75: dose which increases coronary blood flow by 75%, anesthetized mongrel dogs, injected into femoral vein, 0.03 to 0.3 mg/kg, read-out: Coronary blood flow increasing activity CBF-ID75
Protocol: Coronary vasodilating activity was examined by measuring the amount of coronary blood flow as an index. Mongrel dogs weighing 10 to 19 kg were anesthetized by intravenously injecting sodium pentobarbital (30 mg/kg) and thoracotomized at the 5th left intercostal space under artificial ventilation. After incision of the pericardiac membrane, a flow probe was placed at the circumflex banch of the left coronary artery and led to an electromagnetic flow meter (MFV-2100 made by Nihon Kohden Co., Ltd.). The systemic blood pressure of the animals was measured by a pressure transducer (MPU-0.5 made by Nihon Kohden Co., Ltd.) connected to the cannulated left femoral artery. The coronary blood flow and the systemic blood pressure were recorded on a polygraph (RM-85 made by Nihon Kohden Co., Ltd.). Each of the test compounds was dissolved in ethanol/saline solution (1/1, V/V) and injected into the femoral vein.
Each of the test compounds was administered in a dose of 0.03 to 0.3 mg/kg, and doses which increase the coronary blood flow by 75% (CBF-ID75) and decrease the mean systemic blood pressure by 15% (MDP-DD15) were calculated from the regression lines.

T1 sequence (O35505 whole entry): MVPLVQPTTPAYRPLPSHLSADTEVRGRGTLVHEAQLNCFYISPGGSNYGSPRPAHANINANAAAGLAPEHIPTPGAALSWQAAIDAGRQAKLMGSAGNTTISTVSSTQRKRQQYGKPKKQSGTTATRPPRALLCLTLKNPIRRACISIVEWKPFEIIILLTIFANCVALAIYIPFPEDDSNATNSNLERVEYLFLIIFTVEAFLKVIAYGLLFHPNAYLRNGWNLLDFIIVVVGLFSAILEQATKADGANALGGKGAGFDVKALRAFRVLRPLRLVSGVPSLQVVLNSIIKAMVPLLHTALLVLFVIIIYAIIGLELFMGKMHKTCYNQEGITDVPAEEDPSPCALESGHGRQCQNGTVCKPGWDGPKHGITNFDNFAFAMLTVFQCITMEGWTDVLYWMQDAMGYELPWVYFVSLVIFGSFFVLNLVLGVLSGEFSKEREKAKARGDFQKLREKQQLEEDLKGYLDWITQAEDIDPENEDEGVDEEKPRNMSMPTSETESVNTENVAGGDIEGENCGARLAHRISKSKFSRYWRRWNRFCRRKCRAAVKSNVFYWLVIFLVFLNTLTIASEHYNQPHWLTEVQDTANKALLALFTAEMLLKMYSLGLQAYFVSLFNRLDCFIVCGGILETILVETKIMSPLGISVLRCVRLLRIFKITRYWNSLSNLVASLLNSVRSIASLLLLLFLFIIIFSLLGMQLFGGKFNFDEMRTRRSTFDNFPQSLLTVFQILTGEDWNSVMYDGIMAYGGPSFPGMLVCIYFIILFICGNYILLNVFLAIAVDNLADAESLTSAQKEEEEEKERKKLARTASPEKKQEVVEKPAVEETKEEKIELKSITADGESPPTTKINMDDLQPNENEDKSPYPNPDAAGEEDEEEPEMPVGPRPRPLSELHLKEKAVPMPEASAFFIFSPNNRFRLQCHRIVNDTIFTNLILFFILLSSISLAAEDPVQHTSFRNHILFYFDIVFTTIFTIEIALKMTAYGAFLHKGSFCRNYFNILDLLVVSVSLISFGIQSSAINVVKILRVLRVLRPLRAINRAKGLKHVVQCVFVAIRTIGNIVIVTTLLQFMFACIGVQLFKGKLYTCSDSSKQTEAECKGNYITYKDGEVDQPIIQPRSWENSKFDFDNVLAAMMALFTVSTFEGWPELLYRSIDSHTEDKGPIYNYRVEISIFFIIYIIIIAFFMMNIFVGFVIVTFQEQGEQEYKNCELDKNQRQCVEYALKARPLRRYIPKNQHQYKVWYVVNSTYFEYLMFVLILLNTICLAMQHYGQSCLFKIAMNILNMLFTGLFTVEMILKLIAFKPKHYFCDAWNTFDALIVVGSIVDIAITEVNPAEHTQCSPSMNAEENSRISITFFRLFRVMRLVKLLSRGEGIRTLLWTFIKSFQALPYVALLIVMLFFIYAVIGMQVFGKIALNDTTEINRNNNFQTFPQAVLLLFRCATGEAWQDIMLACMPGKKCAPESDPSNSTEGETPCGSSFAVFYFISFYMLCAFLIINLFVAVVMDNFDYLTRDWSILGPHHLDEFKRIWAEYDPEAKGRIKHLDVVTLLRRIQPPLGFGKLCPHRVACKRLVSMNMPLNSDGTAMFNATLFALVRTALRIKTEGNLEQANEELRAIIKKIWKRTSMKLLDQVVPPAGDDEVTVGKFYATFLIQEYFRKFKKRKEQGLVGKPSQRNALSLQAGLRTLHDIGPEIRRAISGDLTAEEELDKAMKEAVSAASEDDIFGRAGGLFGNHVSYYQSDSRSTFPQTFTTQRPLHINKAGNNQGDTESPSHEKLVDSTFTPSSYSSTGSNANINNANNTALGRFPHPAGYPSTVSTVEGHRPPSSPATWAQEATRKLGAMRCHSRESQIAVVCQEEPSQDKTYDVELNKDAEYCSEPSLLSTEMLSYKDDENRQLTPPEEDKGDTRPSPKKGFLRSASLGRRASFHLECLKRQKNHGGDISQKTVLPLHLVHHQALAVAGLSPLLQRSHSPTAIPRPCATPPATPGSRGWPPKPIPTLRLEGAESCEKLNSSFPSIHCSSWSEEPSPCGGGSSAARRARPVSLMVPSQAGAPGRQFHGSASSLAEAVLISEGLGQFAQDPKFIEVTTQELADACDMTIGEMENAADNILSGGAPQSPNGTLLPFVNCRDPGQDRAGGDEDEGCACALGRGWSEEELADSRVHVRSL

Row | Compound | LD50 at 168 h (Acute toxicity, oral) | Kb [1] | ED15 (Mongrel dogs) | ED75 (Mongrel dogs)
1 | CCOP(=O)(Cc1ccc(-c2nc3ccccc3s2)cc1)N1CCCC1=O (centres unmarked) [Compound 100, Ethyl 4-(benzothiazol-2-yl)benzyl-(2-oxopyrrolidino)phosphinate] | > 1000 mg/kg | 29.5 nM | 0.0387 mg/kg | 0.044 mg/kg
2 | CCOP(=O)(Cc1ccc(-c2nc3ccccc3s2)cc1)N1CCCCC1=O (centres unmarked) [Compound 101, Ethyl 4-(benzothiazol-2-yl)benzyl-(2-oxopiperidino)phosphinate] | > 1000 mg/kg | 35.5 nM | 0.0582 mg/kg | 0.06 mg/kg
3 | CCOP(=O)(Cc1ccc(-c2nc3ccccc3s2)cc1)N1CCCCCC1=O (centres unmarked) [Compound 102, Ethyl 4-(benzothiazol-2-yl)benzyl-(2-oxohomopiperidino)phosphinate] | > 1000 mg/kg | 34.7 nM | 0.054 mg/kg | 0.0573 mg/kg
4 | CCOP(=O)(Cc1ccc(-c2nc3cc(F)ccc3s2)cc1)N1CCCC1=O (centres unmarked) [Compound 103, Ethyl 4-(5-fluorobenzothiazol-2-yl)benzyl(2-oxopyrrolidino)phosphinate] | > 1000 mg/kg | 18.6 nM | 0.0901 mg/kg | 0.0644 mg/kg
5 | CCOP(=O)(Cc1ccc(-c2nc3cc(F)ccc3s2)cc1)N1CCCCC1=O (centres unmarked) [Compound 104, Ethyl 4-(5-fluorobenzothiazol-2-yl)benzyl(2-oxopiperidino)phosphinate] | > 1000 mg/kg | 20.9 nM | 0.0629 mg/kg | 0.0647 mg/kg
6 | CCOP(=O)(Cc1ccc(-c2nc3cc(F)ccc3s2)cc1)N1CCCCCC1=O (centres unmarked) [Compound 105, Ethyl 4-(5-fluorobenzothiazol-2-yl)benzyl(2-oxohomopiperidino)phosphinate] | > 1000 mg/kg | 18.6 nM | 0.0712 mg/kg | 0.0583 mg/kg
7 | CCOP(=O)(Cc1ccc(-c2nc3cc(F)ccc3s2)cc1)N1CCOC1=O (centres unmarked) [Compound 109, Ethyl 4-(5-fluorobenzothiazol-2-yl)benzyl(2-oxo-1,3-oxazolidino)phosphinate] | > 1000 mg/kg | 20.4 nM | 0.0748 mg/kg | 0.0615 mg/kg
8 | CCOP(=O)(Cc1ccc(-c2nc3ccccc3s2)cc1)OCC [Compound A, diethyl 4-(benzothiazol-2-yl)benzylphosphonate, reference compound] | > 1000 mg/kg | 61.7 nM | 0.158 mg/kg | 0.116 mg/kg
